# Species on record: Rattus norvegicus
# Assay: DrugMatrix - Regimen: Daily Repeat
# Format: toxicity, organism-based, Sprague-Dawley
# Set-up: regimen Daily Repeat, gender Male, age 6-8 weeks
# Conditions: in vivo, po, route oral GAVAGE, vehicle 100 % WATER; for ABSOLUTE BASOPHIL / ABSOLUTE EOSINOPHIL / ABSOLUTE LYMPHOCYTE / ABSOLUTE MONOCYTE / ABSOLUTE SEGMENTED NEUTROPHIL / BASOPHIL / EOSINOPHIL / ERYTHROCYTE COUNT / HEMATOCRIT / HEMOGLOBIN / LEUKOCYTE COUNT / LYMPHOCYTE / MEAN CORPUSCULAR HEMOGLOBIN / MEAN CORPUSCULAR HEMOGLOBIN CONCENTRATION / MEAN CORPUSCULAR VOLUME / MONOCYTE / NEUTROPHIL / NUCLEATED RED BLOOD CELLS / PLATELET COUNT: tissue Blood; for ALANINE AMINOTRANSFERASE / ALBUMIN / ALKALINE PHOSPHATASE / ASPARTATE AMINOTRANSFERASE / BLOOD UREA NITROGEN / CARBON DIOXIDE / CHLORIDE / CHOLESTEROL / CREATINE PHOSPHOKINASE / CREATININE / GLUCOSE / LACTATE DEHYDROGENASE / LIPASE / PHOSPHORUS / POTASSIUM / SODIUM / TOTAL BILIRUBIN / TOTAL PROTEIN / URIC ACID: tissue Plasma
# [1] = 300 mg/kg, 120 h, dose level Low, time 5 day
# [2] = 3000 mg/kg, 72 h, dose level High, time 3 day
# [3] = 3000 mg/kg, 120 h, dose level High, time 5 day
structure (smiles),measurement,setting,value
CC(Cl)(Cl)Cl [TRICHLOROETHANE],ABSOLUTE BASOPHIL,[1],0 CELLS/uL
same,ABSOLUTE EOSINOPHIL,[1],0 CELLS/uL
same,ABSOLUTE LYMPHOCYTE,[1],11569 CELLS/uL
same,ABSOLUTE MONOCYTE,[1],149.67 CELLS/uL
same,ABSOLUTE SEGMENTED NEUTROPHIL,[1],1081.33 CELLS/uL
same,BASOPHIL,[1],0%
same,EOSINOPHIL,[1],0%
same,ERYTHROCYTE COUNT,[1],5.76 x10E6/uL
same,HEMATOCRIT,[1],36.17%
same,HEMOGLOBIN,[1],14.07 G/DL
same,LEUKOCYTE COUNT,[1],12.8 x10E3/uL
same,LYMPHOCYTE,[1],90%
same,MEAN CORPUSCULAR HEMOGLOBIN,[1],24.43 pg
same,MEAN CORPUSCULAR HEMOGLOBIN CONCENTRATION,[1],38.9 G/DL
same,MEAN CORPUSCULAR VOLUME,[1],62.7 fL
same,MONOCYTE,[1],1%
same,NEUTROPHIL,[1],9%
same,NUCLEATED RED BLOOD CELLS,[1],0.33 /100WBC
same,PLATELET COUNT,[1],1070.67 x10E3/uL
same,ALANINE AMINOTRANSFERASE,[1],50.33 u/L
same,ALBUMIN,[1],4.07 G/DL
same,ALKALINE PHOSPHATASE,[1],394 u/L
same,ASPARTATE AMINOTRANSFERASE,[1],95 u/L
same,BLOOD UREA NITROGEN,[1],16.33 mg/dL
same,CARBON DIOXIDE,[1],32.33 mmol/L
same,CHLORIDE,[1],103.33 MEQ/L
same,CHOLESTEROL,[1],65 mg/dL
same,CREATINE PHOSPHOKINASE,[1],400 u/L
same,CREATININE,[1],0.17 mg/dL
same,GLUCOSE,[1],135.67 mg/dL
same,LACTATE DEHYDROGENASE,[1],117.67 u/L
same,LIPASE,[1],10.67 u/L
same,PHOSPHORUS,[1],11.3 mg/dL
same,POTASSIUM,[1],6.41 MEQ/L
same,SODIUM,[1],148.03 MEQ/L
same,TOTAL BILIRUBIN,[1],0.2 mg/dL
same,TOTAL PROTEIN,[1],6.03 G/DL
same,URIC ACID,[1],0.9 mg/dL
same,ABSOLUTE BASOPHIL,[2],0 CELLS/uL
same,ABSOLUTE EOSINOPHIL,[2],0 CELLS/uL
same,ABSOLUTE LYMPHOCYTE,[2],11145.5 CELLS/uL
same,ABSOLUTE MONOCYTE,[2],120.5 CELLS/uL
same,ABSOLUTE SEGMENTED NEUTROPHIL,[2],784 CELLS/uL
same,BASOPHIL,[2],0%
same,EOSINOPHIL,[2],0%
same,ERYTHROCYTE COUNT,[2],6.08 x10E6/uL
same,HEMATOCRIT,[2],38.1%
same,HEMOGLOBIN,[2],14.85 G/DL
same,LEUKOCYTE COUNT,[2],12.05 x10E3/uL
same,LYMPHOCYTE,[2],92.5%
same,MEAN CORPUSCULAR HEMOGLOBIN,[2],24.45 pg
same,MEAN CORPUSCULAR HEMOGLOBIN CONCENTRATION,[2],39 G/DL
same,MEAN CORPUSCULAR VOLUME,[2],62.65 fL
same,MONOCYTE,[2],1%
same,NEUTROPHIL,[2],6.5%
same,NUCLEATED RED BLOOD CELLS,[2],0.5 /100WBC
same,PLATELET COUNT,[2],1361.5 x10E3/uL
same,ALANINE AMINOTRANSFERASE,[2],49.5 u/L
same,ALBUMIN,[2],4.15 G/DL
same,ALKALINE PHOSPHATASE,[2],322 u/L
same,ASPARTATE AMINOTRANSFERASE,[2],87.5 u/L
same,BLOOD UREA NITROGEN,[2],11.5 mg/dL
same,CARBON DIOXIDE,[2],33 mmol/L
same,CHLORIDE,[2],102.5 MEQ/L
same,CHOLESTEROL,[2],91.5 mg/dL
same,CREATINE PHOSPHOKINASE,[2],450 u/L
same,CREATININE,[2],0.17 mg/dL
same,GLUCOSE,[2],131 mg/dL
same,LACTATE DEHYDROGENASE,[2],260 u/L
same,LIPASE,[2],9.5 u/L
same,PHOSPHORUS,[2],9.5 mg/dL
same,POTASSIUM,[2],5.71 MEQ/L
same,SODIUM,[2],148.15 MEQ/L
same,TOTAL BILIRUBIN,[2],0.1 mg/dL
same,TOTAL PROTEIN,[2],6.35 G/DL
same,URIC ACID,[2],0.5 mg/dL
same,ABSOLUTE BASOPHIL,[3],0 CELLS/uL
same,ABSOLUTE EOSINOPHIL,[3],0 CELLS/uL
same,ABSOLUTE LYMPHOCYTE,[3],9273 CELLS/uL
same,ABSOLUTE MONOCYTE,[3],138.67 CELLS/uL
same,ABSOLUTE SEGMENTED NEUTROPHIL,[3],1121.67 CELLS/uL
same,BASOPHIL,[3],0%
same,EOSINOPHIL,[3],0%
same,ERYTHROCYTE COUNT,[3],5.95 x10E6/uL
same,HEMATOCRIT,[3],36.77%
same,HEMOGLOBIN,[3],13.97 G/DL
same,LEUKOCYTE COUNT,[3],10.53 x10E3/uL
same,LYMPHOCYTE,[3],87.67%
same,MEAN CORPUSCULAR HEMOGLOBIN,[3],23.57 pg
same,MEAN CORPUSCULAR HEMOGLOBIN CONCENTRATION,[3],37.97 G/DL
same,MEAN CORPUSCULAR VOLUME,[3],62 fL
same,MONOCYTE,[3],1.33%
same,NEUTROPHIL,[3],11%
same,NUCLEATED RED BLOOD CELLS,[3],0 /100WBC
same,PLATELET COUNT,[3],1168 x10E3/uL
same,ALANINE AMINOTRANSFERASE,[3],46.33 u/L
same,ALBUMIN,[3],4.03 G/DL
same,ALKALINE PHOSPHATASE,[3],272 u/L
same,ASPARTATE AMINOTRANSFERASE,[3],71 u/L
same,BLOOD UREA NITROGEN,[3],14.33 mg/dL
same,CARBON DIOXIDE,[3],30.67 mmol/L
same,CHLORIDE,[3],100.33 MEQ/L
same,CHOLESTEROL,[3],74 mg/dL
same,CREATINE PHOSPHOKINASE,[3],156.67 u/L
same,CREATININE,[3],0.17 mg/dL
same,GLUCOSE,[3],120.67 mg/dL
same,LACTATE DEHYDROGENASE,[3],107 u/L
same,LIPASE,[3],10.33 u/L
same,PHOSPHORUS,[3],12.33 mg/dL
same,POTASSIUM,[3],6.12 MEQ/L
same,SODIUM,[3],147.17 MEQ/L
same,TOTAL BILIRUBIN,[3],0.13 mg/dL
same,TOTAL PROTEIN,[3],6.2 G/DL
same,URIC ACID,[3],1.1 mg/dL
